Consider 54 compounds from publication PMC12064818, “A general assay platform to study protein pharmacology using ligand-dependent structural dynamics” (Nature Communications, 2025).

The assay concerns the target T1, FLuc-C-HiBiT (Photinus pyralis, UniProt P08659).
T1 construct: firefly luciferase with C-terminal HiBiT tag, E. coli expressed
Kind of assay: biochemical. The following applies: enzyme activity, 10 uM ATP; read-out: IC50 or SDR50 (mM) / FLuc E.

T1 sequence (P08659 whole entry, looked up): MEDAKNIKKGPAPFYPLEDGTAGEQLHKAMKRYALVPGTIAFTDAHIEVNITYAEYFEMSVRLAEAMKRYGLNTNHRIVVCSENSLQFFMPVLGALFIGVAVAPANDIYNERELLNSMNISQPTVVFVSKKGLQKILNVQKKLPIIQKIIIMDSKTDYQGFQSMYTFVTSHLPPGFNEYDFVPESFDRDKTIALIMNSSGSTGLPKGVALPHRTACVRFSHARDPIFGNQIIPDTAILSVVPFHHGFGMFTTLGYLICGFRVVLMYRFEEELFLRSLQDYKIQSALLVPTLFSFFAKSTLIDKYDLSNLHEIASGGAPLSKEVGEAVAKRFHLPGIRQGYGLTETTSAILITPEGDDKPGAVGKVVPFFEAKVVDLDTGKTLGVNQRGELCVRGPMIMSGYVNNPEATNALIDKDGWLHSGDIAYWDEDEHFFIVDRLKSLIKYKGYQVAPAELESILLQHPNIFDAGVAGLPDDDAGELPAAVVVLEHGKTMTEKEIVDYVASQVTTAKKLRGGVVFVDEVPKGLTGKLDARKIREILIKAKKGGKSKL

In the case of `CC(=O)NCCC1CCN(C(=O)Nc2ccc(C)cc2)CC1` [NCGC00424871-01], the IC50 was 0.0124 mM. As to `O[C@H]1C[C@@H](c2cc(N3CCc4c(Cl)cccc4C3)ncn2)C1` [NCGC00424922-01], the IC50 was found to be 0.00989 mM.

In the case of `CN(Cc1cnn(C)c1)C(=O)c1csc2nc(-c3ccc(C(F)(F)F)cc3)cn12` [NCGC00425000-01], the IC50 was found to be 0.00442 mM.

As for `O=C(NCCC1CCN(C(=O)Nc2cc(F)cc(F)c2)CC1)c1ccc(F)cc1` [NCGC00425011-01], the IC50 is more than 0.03 mM. Consider `COc1ccc(C(=O)NCCC2CCN(C(=O)Nc3cc(F)cc(F)c3)CC2)cc1` [NCGC00425013-01], for which the IC50 worked out at 0.00989 mM. Next, `O=C(NCc1ccoc1)c1ccc2nc(-c3ccc(F)cc3)cn2c1` [NCGC00425034-01]: 0.0111 mM; `Cc1ccc(NC(=O)N2CCC(CCNC(=O)c3ccc(F)cc3)CC2)cc1F` [NCGC00425047-01]: 0.0111 mM.

For `Cc1ccc(NC(=O)N2CCC(CCNC(=O)C3CC3)CC2)cc1F` [NCGC00425057-01], the IC50 was 0.0111 mM.

Consider `Cc1ccc(NC(=O)N2CCC(CCNC(=O)C3CCC3)CC2)cc1F` [NCGC00425059-01], for which the IC50 is 0.0124 mM. Next, `CCC(=O)NCCC1CCN(C(=O)Nc2ccc(C)c(F)c2)CC1` [NCGC00425067-01]: 0.0111 mM; `OCc1cn(CC2CCN(c3ncnc4[nH]cnc34)CC2)nn1` [NCGC00425096-01]: more than 0.03 mM. The value for `COc1cccc(-c2noc(-c3ccc(N4CCCC(CO)C4)nc3)n2)c1OC` (stereo not drawn) [NCGC00425266-01] was 0.00279 mM; that for `CN(Cc1nccs1)c1ccc(-c2nc(-c3ccccc3F)no2)cn1` [NCGC00425298-01] was 0.00989 mM.

On to `CC(Cc1cnccn1)Nc1ccc(-c2nc(-c3cccc(Cl)c3)no2)cn1` (stereo not drawn) [NCGC00425352-01], for which the IC50 was 0.0111 mM. `CCN1C(=O)CCc2cc(NC(=O)c3ccc(C(C)C)cc3)ccc21` [NCGC00425391-01]: the IC50 was 0.00989 mM. Next, `CCN1C(=O)CCc2cc(NC(=O)c3ccc(OC(F)(F)F)cc3)ccc21` [NCGC00425397-01]: 0.0111 mM. The value for `Cc1cccc(-c2cccc(NC(=O)C3CCCN(C(=O)CC(F)(F)F)C3)c2)c1` (stereo not drawn) [NCGC00425452-01] was more than 0.03 mM; that for `O=C1CCc2cc(NC(=O)c3n[nH]c4ccccc34)ccc2N1` [NCGC00425473-01] was 0.00313 mM.

As to `CN(Cc1cccnc1)c1ccc(-c2nc(COc3ccccc3)no2)cn1` [NCGC00425502-01], the IC50 turned out to be 0.0124 mM.

`CCc1ccc(C(=O)Nc2ccc3c(N4CCOCC4)ncnc3c2)cc1` [NCGC00425539-01]: the IC50 worked out at 0.00785 mM. The value for `CN(C)c1cccc(C(=O)Nc2ccc3c(N4CCOCC4)ncnc3c2)c1` [NCGC00425557-01] was 0.00989 mM. The value for `Cc1c(-c2ccccc2F)[nH]c2ccc(CNC(=O)CC3CCC(=O)N3)cc12` (stereo not drawn) [NCGC00425710-01] was 0.00989 mM. For `CC(=O)N1CCCN(c2ccc(-c3nc(-c4ccccc4F)no3)cn2)CC1` [NCGC00426241-01], the IC50 was determined as 0.0157 mM. For `CN(CCc1ccccn1)c1ccc(-c2nc(COc3ccccc3)no2)cn1` [NCGC00426301-01], the IC50 came to 0.0111 mM. As to `COc1ccc(OC)c(CN2CCOc3ccc(C(=O)NCc4ccc(C)cc4)cc3C2)c1` [NCGC00426332-01], the IC50 is more than 0.03 mM. The value for `CN(C)C(=O)c1ccc(-c2cccc(-c3ccn(CC4CC4)n3)c2)o1` [NCGC00426335-01] was 0.00785 mM; that for `Cc1ccc(CNC(=O)c2ccc3c(c2)CN(Cc2cnn(C)c2C)CCO3)cc1` [NCGC00426362-01] was more than 0.03 mM; that for `Cc1cc(CNC(=O)C2(C(N)=O)CC2)c2[nH]c(-c3ccccc3)c(C)c2c1` [NCGC00426839-01] was 0.0111 mM. Next, `COCC1CCN(c2ccc(-c3nc(-c4ccccc4C)no3)cn2)C1` (stereo not drawn) [NCGC00427117-01]: 0.0176 mM; `CC(CCn1cccn1)NC(=O)c1csc2nc(-c3ccc(C(F)(F)F)cc3)cn12` (stereo not drawn) [NCGC00427469-01]: 0.00989 mM; `CC(Cn1cccn1)Nc1ccc(-c2nc(-c3ccccc3F)no2)cn1` (stereo not drawn) [NCGC00427483-01]: 0.00989 mM.

Turning to `O=C(Nc1cccc(-c2ccc(N3CCCC3)nn2)c1)c1c(F)cccc1F` [NCGC00427548-01], the IC50 is 0.00881 mM. Consider `CN1CCN(c2ccc(-c3cccc(NC(=O)C4CCCCC4)c3)nn2)CC1` [NCGC00427550-01], for which the IC50 was found to be 0.00881 mM. The value for `Cc1ccc(C(=O)Nc2cccc(-c3ccc(N4CCN(C)CC4)nn3)c2)cc1C` [NCGC00427552-01] was 0.00394 mM; that for `O=C(NCc1ccco1)Nc1cccc(-c2ccc(N3CCCC3)nn2)c1` [NCGC00427562-01] was 0.00989 mM. The value for `COc1ccc(NC(=O)Nc2cccc(-c3ccc(N4CCOCC4)nn3)c2)cc1` [NCGC00427572-01] was 0.00176 mM; that for `CCOc1ccccc1NC(=O)Nc1cccc(-c2ccc(N3CCOCC3)nn2)c1` [NCGC00427574-01] was 0.00394 mM; that for `O=C(Nc1ccc(F)cc1)Nc1cccc(-c2ccc(N3CCOCC3)nn2)c1` [NCGC00427578-01] was 0.00197 mM. Next, `COc1ccccc1NC(=O)Nc1cccc(-c2ccc(N3CCOCC3)nn2)c1` [NCGC00427580-01]: 0.00313 mM; `O=C(Nc1cccc(-c2ccc(N3CCOCC3)nn2)c1)Nc1cc(F)ccc1F` [NCGC00427590-01]: 0.00248 mM; `COc1cc(NC(=O)Nc2cccc(-c3ccc(N4CCOCC4)nn3)c2)cc(OC)c1` [NCGC00427592-01]: 0.00176 mM.

In the case of `O=C(Nc1cccc(-c2ccc(N3CCOCC3)nn2)c1)Nc1cccc(C(F)(F)F)c1` [NCGC00427594-01], the IC50 was determined as 0.00495 mM. `Cc1ccc(CNC(=O)Nc2cccc(-c3ccc(N4CCOCC4)nn3)c2)cc1` [NCGC00427596-01]: the IC50 was 0.00279 mM.

For `O=C(Nc1cccc(-c2ccc(N3CCOCC3)nn2)c1)Nc1ccccc1F` [NCGC00427598-01], the IC50 is 0.00279 mM. As for `COc1cccc(CNC(=O)Nc2cccc(-c3ccc(N4CCOCC4)nn3)c2)c1` [NCGC00427600-01], the IC50 was determined as 0.00279 mM.

Take `O=C(NCc1ccc(F)cc1)Nc1cccc(-c2ccc(N3CCOCC3)nn2)c1` [NCGC00427604-01]: the IC50 is 0.00176 mM. With `CSc1cccc(NC(=O)Nc2cccc(-c3ccc(N4CCOCC4)nn3)c2)c1` [NCGC00427606-01], the IC50 was 0.00157 mM. Next, `COc1ccc(CNC(=O)Nc2cccc(-c3ccc(N4CCOCC4)nn3)c2)cc1` [NCGC00427608-01]: 0.00197 mM; `COc1ccc(NC(=O)Nc2cccc(-c3ccc(N4CCOCC4)nn3)c2)cc1Cl` [NCGC00427610-01]: 0.00124 mM; `O=C(Nc1cccc(-c2ccc(N3CCOCC3)nn2)c1)Nc1ccc2c(c1)CCC2` [NCGC00427612-01]: 0.00279 mM.

`CCc1cccc(NC(=O)Nc2cccc(-c3ccc(N4CCOCC4)nn3)c2)c1` [NCGC00427616-01]: the IC50 came out at 0.00624 mM.

As for `O=C(Nc1cccc(-c2ccc(N3CCOCC3)nn2)c1)Nc1cccc(Cl)c1F` [NCGC00427620-01], the IC50 is 0.00556 mM.

Regarding `COc1ccc(NC(=O)Nc2cccc(-c3ccc(N4CCOCC4)nn3)c2)cc1F` [NCGC00427622-01], the IC50 was 0.000881 mM.

With `O=C(Nc1cc(F)cc(F)c1)Nc1cccc(-c2ccc(N3CCOCC3)nn2)c1` [NCGC00427624-01], the IC50 stood at 0.00313 mM.
